Blank lines part the entries; values can stand above or below the compound they belong to.
Biological target: T1, Bcl-2 protein (Recombinant Human Bcl-2 Protein) (Homo sapiens, UniProt P10415)
T1 construct: purchased Novus NBP2-34889
Experiment: Binding evaluation of mixture library compounds to Bcl-2 using AS-MS (affinity selection mass spectrometry)
Conditions: AS-MS, mixture of 1200 compounds, Bcl-2, ASMS Ratio(%)=(A−C)/B×100; for ASMS ratio (%) n = 1: replicate n = 1; for ASMS ratio (%) n = 2: replicate n = 2
Procedure, shortened: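 Readout is ASMS Ratio (%), (A−C)/B×100, from reversed-phase LC/MS of SEC-passed extracts, with protein-free unfiltered standard (B) and protein-free SEC blank (C). Recombinant human Bcl-2 at 20 μM final met ~1200 pooled compounds at […] each for 1 h, 23° C., dark, in Tris-HCl pH 7.4 buffer.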

T1 sequence (P10415 whole entry): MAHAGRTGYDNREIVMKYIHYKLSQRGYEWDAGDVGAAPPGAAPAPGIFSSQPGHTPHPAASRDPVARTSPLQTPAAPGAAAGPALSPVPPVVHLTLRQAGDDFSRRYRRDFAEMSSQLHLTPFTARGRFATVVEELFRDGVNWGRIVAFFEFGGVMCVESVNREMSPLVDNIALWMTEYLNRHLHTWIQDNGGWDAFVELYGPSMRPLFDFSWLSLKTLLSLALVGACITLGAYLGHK

Compound: CCOc1cncc(C#Cc2ccccc2CN2CCN(c3ccc(C(=O)NCC45CC6CC(CC(C6)C4)C5)cc3)CC2)c1 [B1A070-01, N-(1-Adamantylmethyl)-4-[4-[[2-[2-(5-ethoxypyridin-3-yl)ethynyl]phenyl]methyl]piperazin-1-yl]benzamide]
ASMS ratio (%) n = 1: 0.0% | ASMS ratio (%) n = 2: 0.0%

Compound: CCOc1cccc(-c2ccccc2CN2CCN(c3ccc(C(=O)NCC45CC6CC(CC(C6)C4)C5)nn3)CC2)c1 [B1A071-01, N-(1-Adamantylmethyl)-6-[4-[[2-(3-ethoxyphenyl)phenyl]methyl]piperazin-1-yl]pyridazine-3-carboxamide]
ASMS ratio (%) n = 1: −0.3% | ASMS ratio (%) n = 2: −3.3%

Compound: CCOc1cncc(-c2ccccc2CN2CCN(c3ccc(C(=O)NCC45CC6CC(CC(C6)C4)C5)nn3)CC2)c1 [B1A072-01, N-(1-Adamantylmethyl)-6-[4-[[2-(5-ethoxypyridin-3-yl)phenyl]methyl]piperazin-1-yl]pyridazine-3-carboxamide]
ASMS ratio (%) n = 1: 3.9% | ASMS ratio (%) n = 2: −0.2%

Compound: CCOc1cccc(-c2ccc(CN3CCN(c4ccc(C(=O)NCC56CC7CC(CC(C7)C5)C6)nn4)CC3)cc2C)c1 [B1A073-01, N-(1-Adamantylmethyl)-6-[4-[[4-(3-ethoxyphenyl)-3-methylphenyl]methyl]piperazin-1-yl]pyridazine-3-carboxamide]
ASMS ratio (%) n = 1: 3.2% | ASMS ratio (%) n = 2: −4.7%

Compound: CCOc1cncc(-c2ccc(CN3CCN(c4ccc(C(=O)NCC56CC7CC(CC(C7)C5)C6)nn4)CC3)cc2C)c1 [B1A074-01, N-(1-Adamantylmethyl)-6-[4-[[4-(5-ethoxypyridin-3-yl)-3-methylphenyl]methyl]piperazin-1-yl]pyridazine-3-carboxamide]
ASMS ratio (%) n = 1: 3.2% | ASMS ratio (%) n = 2: −0.1%

Compound: CCOc1cccc(-c2ccc(CN3CCN(c4ccc(C(=O)NCC56CC7CC(CC(C7)C5)C6)nn4)CC3)cc2F)c1 [B1A077-01, N-(1-Adamantylmethyl)-6-[4-[[4-(3-ethoxyphenyl)-3-fluorophenyl]methyl]piperazin-1-yl]pyridazine-3-carboxamide]
ASMS ratio (%) n = 1: 6.6% | ASMS ratio (%) n = 2: −1.3%

Compound: CCOc1cncc(-c2ccc(CN3CCN(c4ccc(C(=O)NCC56CC7CC(CC(C7)C5)C6)nn4)CC3)cc2F)c1 [B1A078-01, N-(1-Adamantylmethyl)-6-[4-[[4-(5-ethoxypyridin-3-yl)-3-fluorophenyl]methyl]piperazin-1-yl]pyridazine-3-carboxamide]
ASMS ratio (%) n = 1: 4.7% | ASMS ratio (%) n = 2: 1.2%

Compound: CCOc1cccc(-c2ccc(CN3CCN(c4ccc(C(=O)NCC56CC7CC(CC(C7)C5)C6)nn4)CC3)c(OC)c2)c1 [B1A079-01, N-(1-Adamantylmethyl)-6-[4-[[4-(3-ethoxyphenyl)-2-methoxyphenyl]methyl]piperazin-1-yl]pyridazine-3-carboxamide]
ASMS ratio (%) n = 1: 3.9% | ASMS ratio (%) n = 2: −3.9%

Compound: CCOc1cncc(-c2ccc(CN3CCN(c4ccc(C(=O)NCC56CC7CC(CC(C7)C5)C6)nn4)CC3)c(OC)c2)c1 [B1A080-01, N-(1-Adamantylmethyl)-6-[4-[[4-(5-ethoxypyridin-3-yl)-2-methoxyphenyl]methyl]piperazin-1-yl]pyridazine-3-carboxamide]
ASMS ratio (%) n = 1: 3.4% | ASMS ratio (%) n = 2: 0.0%

Compound: CCOc1cncc(-c2cc(CN3CCN(c4ccc(C(=O)NCC56CC7CC(CC(C7)C5)C6)nn4)CC3)cc(OCC)c2)c1 [B1A082-01, N-(1-Adamantylmethyl)-6-[4-[[3-ethoxy-5-(5-ethoxypyridin-3-yl)phenyl]methyl]piperazin-1-yl]pyridazine-3-carboxamide]
ASMS ratio (%) n = 1: 3.0% | ASMS ratio (%) n = 2: 0.2%

Compound: CCOc1cncc(-c2cc(CN3CCN(c4ccc(C(=O)NCC56CC7CC(CC(C7)C5)C6)nn4)CC3)cc(OC(C)C)c2)c1 [B1A084-01, N-(1-Adamantylmethyl)-6-[4-[[3-(5-ethoxypyridin-3-yl)-5-propan-2-yloxyphenyl]methyl]piperazin-1-yl]pyridazine-3-carboxamide]
ASMS ratio (%) n = 1: 2.1% | ASMS ratio (%) n = 2: −2.7%

Compound: CCOc1cccc(-c2cc(OC)c(CN3CCN(c4ccc(C(=O)NCC56CC7CC(CC(C7)C5)C6)nn4)CC3)c(OC)c2)c1 [B1A085-01, N-(1-Adamantylmethyl)-6-[4-[[4-(3-ethoxyphenyl)-2,6-dimethoxyphenyl]methyl]piperazin-1-yl]pyridazine-3-carboxamide]
ASMS ratio (%) n = 1: 10.6% | ASMS ratio (%) n = 2: 10.8%

Compound: CCOc1cncc(-c2cc(OC)c(CN3CCN(c4ccc(C(=O)NCC56CC7CC(CC(C7)C5)C6)nn4)CC3)c(OC)c2)c1 [B1A086-01, N-(1-Adamantylmethyl)-6-[4-[[4-(5-ethoxypyridin-3-yl)-2,6-dimethoxyphenyl]methyl]piperazin-1-yl]pyridazine-3-carboxamide]
ASMS ratio (%) n = 1: 0.0% | ASMS ratio (%) n = 2: −14.8%

Second part, the compound after the results:

ASMS ratio (%) n = 1: −0.3% | ASMS ratio (%) n = 2: −9.7%
Compound: CCOc1cncc(-c2cc(CN3CCN(c4ccc(C(=O)NCC56CC7CC(CC(C7)C5)C6)cc4)CC3)cc(C(F)(F)F)c2)c1 [B1A062-01, N-(1-Adamantylmethyl)-4-[4-[[3-(5-ethoxypyridin-3-yl)-5-(trifluoromethyl)phenyl]methyl]piperazin-1-yl]benzamide]

ASMS ratio (%) n = 1: −1.0% | ASMS ratio (%) n = 2: −11.0%
Compound: CCOc1cccc(-c2cc(CN3CCN(c4ccc(C(=O)NCC56CC7CC(CC(C7)C5)C6)cc4)CC3)cc(OC(F)(F)F)c2)c1 [B1A063-01, N-(1-Adamantylmethyl)-4-[4-[[3-(3-ethoxyphenyl)-5-(trifluoromethoxy)phenyl]methyl]piperazin-1-yl]benzamide]

ASMS ratio (%) n = 1: 5.2% | ASMS ratio (%) n = 2: −1.6%
Compound: CCOc1cncc(-c2cc(CN3CCN(c4ccc(C(=O)NCC56CC7CC(CC(C7)C5)C6)cc4)CC3)cc(OC(F)(F)F)c2)c1 [B1A064-01, N-(1-Adamantylmethyl)-4-[4-[[3-(5-ethoxypyridin-3-yl)-5-(trifluoromethoxy)phenyl]methyl]piperazin-1-yl]benzamide]

ASMS ratio (%) n = 1: −32.6% | ASMS ratio (%) n = 2: −10.4%
Compound: CCOc1cccc(-c2ccc(CN3CCN(c4ccc(C(=O)NCC56CC7CC(CC(C7)C5)C6)cc4)CC3)c3ccccc23)c1 [B1A065-01, N-(1-Adamantylmethyl)-4-[4-[[4-(3-ethoxyphenyl)naphthalen-1-yl]methyl]piperazin-1-yl]benzamide]

ASMS ratio (%) n = 1: 8.2% | ASMS ratio (%) n = 2: 7.7%
Compound: CCOc1cncc(-c2ccc(CN3CCN(c4ccc(C(=O)NCC56CC7CC(CC(C7)C5)C6)cc4)CC3)c3ccccc23)c1 [B1A066-01, N-(1-Adamantylmethyl)-4-[4-[[4-(5-ethoxypyridin-3-yl)naphthalen-1-yl]methyl]piperazin-1-yl]benzamide]

ASMS ratio (%) n = 1: 3.6% | ASMS ratio (%) n = 2: −7.8%
Compound: CCOc1cccc(-c2csc(CN3CCN(c4ccc(C(=O)NCC56CC7CC(CC(C7)C5)C6)cc4)CC3)c2)c1 [B1A067-01, N-(1-Adamantylmethyl)-4-[4-[[4-(3-ethoxyphenyl)thiophen-2-yl]methyl]piperazin-1-yl]benzamide]

ASMS ratio (%) n = 1: 12.2% | ASMS ratio (%) n = 2: 3.3%
Compound: CCOc1cncc(-c2csc(CN3CCN(c4ccc(C(=O)NCC56CC7CC(CC(C7)C5)C6)cc4)CC3)c2)c1 [B1A068-01, N-(1-Adamantylmethyl)-4-[4-[[4-(5-ethoxypyridin-3-yl)thiophen-2-yl]methyl]piperazin-1-yl]benzamide]

ASMS ratio (%) n = 1: 8.3% | ASMS ratio (%) n = 2: 0.8%
Compound: CCOc1cccc(C#Cc2ccccc2CN2CCN(c3ccc(C(=O)NCC45CC6CC(CC(C6)C4)C5)cc3)CC2)c1 [B1A069-01, N-(1-Adamantylmethyl)-4-[4-[[2-[2-(3-ethoxyphenyl)ethynyl]phenyl]methyl]piperazin-1-yl]benzamide]

ASMS ratio (%) n = 1: −10.9% | ASMS ratio (%) n = 2: −5.5%
Compound: CCOc1cccc(-c2cc(CN3CCN(c4ccc(C(=O)NCC56CC7CC(CC(C7)C5)C6)nn4)CC3)cc(OCC)c2)c1 [B1A081-01, N-(1-Adamantylmethyl)-6-[4-[[3-ethoxy-5-(3-ethoxyphenyl)phenyl]methyl]piperazin-1-yl]pyridazine-3-carboxamide]

ASMS ratio (%) n = 1: −0.3% | ASMS ratio (%) n = 2: 0.5%
Compound: CCOc1cccc(-c2cc(CN3CCN(c4ccc(C(=O)NCC56CC7CC(CC(C7)C5)C6)nn4)CC3)cc(OC(C)C)c2)c1 [B1A083-01, N-(1-Adamantylmethyl)-6-[4-[[3-(3-ethoxyphenyl)-5-propan-2-yloxyphenyl]methyl]piperazin-1-yl]pyridazine-3-carboxamide]

ASMS ratio (%) n = 1: 18.7% | ASMS ratio (%) n = 2: −7.1%
Compound: CCOc1cncc(-c2cc(CN3CCN(c4ccc(C(=O)NCC56CC7CC(CC(C7)C5)C6)nn4)CC3)cc(C(F)(F)F)c2)c1 [B1A088-01, N-(1-Adamantylmethyl)-6-[4-[[3-(5-ethoxypyridin-3-yl)-5-(trifluoromethyl)phenyl]methyl]piperazin-1-yl]pyridazine-3-carboxamide]

ASMS ratio (%) n = 1: 0.0%
Compound: CCOc1cccc(-c2cc(CN3CCN(c4ccc(C(=O)NCC56CC7CC(CC(C7)C5)C6)nn4)CC3)cc(OC(F)(F)F)c2)c1 [B1A089-01, N-(1-Adamantylmethyl)-6-[4-[[3-(3-ethoxyphenyl)-5-(trifluoromethoxy)phenyl]methyl]piperazin-1-yl]pyridazine-3-carboxamide]

ASMS ratio (%) n = 1: 3.3% | ASMS ratio (%) n = 2: −1.0%
Compound: CCOc1cncc(-c2cc(CN3CCN(c4ccc(C(=O)NCC56CC7CC(CC(C7)C5)C6)nn4)CC3)cc(OC(F)(F)F)c2)c1 [B1A090-01, N-(1-Adamantylmethyl)-6-[4-[[3-(5-ethoxypyridin-3-yl)-5-(trifluoromethoxy)phenyl]methyl]piperazin-1-yl]pyridazine-3-carboxamide]

From patent publication US20240132431A1, “METHOD FOR ALKYLATING ACIDIC FUNCTIONAL GROUP” (Chugai Seiyaku Kabushiki Kaisha, priority 2021, published 2024)
